# According to US11292767B2, “Heterocyclic inhibitors of MCT4” (Vettore, LLC, priority 2016, dated 2022):
# Assays:
# Assay type in all cases: in vitro ADME
# [1] = Metabolic stability in human liver microsomes (in vitro t1/2); settings: human liver microsomes 0.5 mg/mL, 2 μM compound; for Human microsome % 60 min: % remaining at 60 min
# Protocol: (§1) Metabolic Stability Assays The following are assays that may be used to evaluate the metabolic stability of compounds of Formula (I) in human, rat, or mouse microsomes. The assays follow a common procedure recited below. 1. […] Two separated experiments were performed as follows. a) With NADPH: 10 μL of 20 mg/mL liver microsomes and 40 μL of 10 mM NADPH were added to the incubations. […] The final concentration of microsomes was 0.5 mg/mL. 3. The reaction was started with the addition of 4 μL of 200 μM control compound or test compound solutions. Verapamil was used as positive control in this study. The final concentration of test compound or control compound was 2 μM. 4. Aliquots of 50 μL were taken from the reaction solution at 0, 15, 30, 45 and 60 min. […] Samples were centrifuged at 3,220 g for 40 minutes. A 90 μL aliquot of the supernatant was mixed with 90 μL of ultra-pure H2O and then used for LC-MS/MS analysis. 5. Data analysis. All calculations were carried out using Microsoft Excel. Peak areas were determined from extracted ion chromatograms. The slope value, k, was determined by linear regression of the natural logarithm of the remaining percentage of the parent drug vs. incubation time curve. The in vitro half-life (in vitro t1/2) was determined from the slope value: in vitro t1/2=−(0.693)/k.
# [2] = Metabolic stability in mouse liver microsomes (in vitro t1/2); settings: mouse liver microsomes 0.5 mg/mL, 2 μM compound, % remaining at 60 min
# Protocol: as §1
# [3] = Metabolic stability in rat liver microsomes (in vitro t1/2); settings: rat liver microsomes 0.5 mg/mL, 2 μM compound; for Rat microsome % 60 min: % remaining at 60 min
# Protocol: as §1
compound,measurement,setting,value
"CC(C)COc1cccc(-c2cc(COC(C)(C)C(=O)O)nn2Cc2ccccc2Cl)c1 [Example 27, 2-([1-[(2-Chlorophenyl)methyl]-5-(3-(2-methylpropoxy)phenyl)1H-pyrazol-3-yl]methoxy)-2-methylpropanoic acid]",Human microsome % 60 min,[1],43%
same,Mouse microsome % 60 min,[2],50%
"CC(C)Oc1cccc(-c2cc(COC(C)(C)C(=O)O)nn2Cc2ccccc2Cl)c1 [Example 35, 2-([1-[(2-Chlorophenyl)methyl]-5-(3-isopropoxyphenyl)1H-pyrazol-3-yl]methoxy)-2-methylpropanoic acid]",Human microsome % 60 min,[1],67%
same,Mouse microsome % 60 min,[2],31%
"COc1cccc(-c2cc(COC(C)(C)C(=O)O)nn2Cc2ccccc2OC)c1 [Example 36, 2-([5-(3-Methoxyphenyl)-1-[(2-methoxyphenyl)methyl]1H-pyrazol-3-yl]methoxy)-2-methylpropanoic acid]",Human microsome % 60 min,[1],85%
same,Mouse microsome % 60 min,[2],99%
"COc1cccc(-c2cc(COC(C)(C)C(=O)O)nn2Cc2ccccc2N(C)C)c1 [Example 38, 2-([1-[[2-(Dimethylamino)phenyl]methyl]-5-(3-methoxyphenyl)1H-pyrazol-3-yl]methoxy)-2-methylpropanoic acid]",Human microsome % 60 min,[1],56%
same,Mouse microsome % 60 min,[2],61%
"CC(C)(OCc1cc(-c2cccc(OC3CC3)c2)n(Cc2ccccc2Cl)n1)C(=O)O [Example 39, 2-([1-[(2-Chlorophenyl)methyl]-5-[3-(cyclopropoxy)phenyl]1H-pyrazol-3-yl]methoxy)-2-methylpropanoic acid]",Human microsome % 60 min,[1],89%
same,Mouse microsome % 60 min,[2],88%
"COc1cccc(-c2c(C)c(COC(C)(C)C(=O)O)nn2Cc2ccccc2Cl)c1 [Example 54, 2-({1-[(2-Chlorophenyl)methyl]-5-(3-methoxyphenyl)-4-methyl-1H-pyrazol-3-yl}methoxy)-2-methylpropionic acid]",Human microsome % 60 min,[1],59%
same,Mouse microsome % 60 min,[2],95%
"COc1ccc(-c2cc(COC(C)(C)C(=O)O)nn2Cc2ccccc2Cl)s1 [Example 64, 2-([1-[(2-Chlorophenyl)methyl]-5-(5-methoxythien-2-yl)-1H-pyrazol-3-yl]methoxy)-2-methylpropanoic acid]",Human microsome % 60 min,[1],82%
same,Mouse microsome % 60 min,[2],84%
"COc1csc(-c2cc(COC(C)(C)C(=O)O)nn2Cc2ccccc2Cl)c1 [Example 65, 2-([1-[(2-Chlorophenyl)methyl]-5-(4-methoxythien-2-yl)-1H-pyrazol-3-yl]methoxy)-2-methylpropanoic acid]",Human microsome % 60 min,[1],78%
same,Mouse microsome % 60 min,[2],92%
"COc1cc(-c2cc(COC(C)(C)C(=O)O)nn2Cc2ccccc2Cl)cs1 [Example 66, 2-([1-[(2-chlorophenyl)methyl]-5-(5-methoxythien-3-yl)-1H-pyrazol-3-yl]methoxy)-2-methylpropanoic acid]",Human microsome % 60 min,[1],73%
same,Mouse microsome % 60 min,[2],83%
"CCC(C)(OCc1cc(-c2cccc(OC)c2)n(Cc2ccccc2Cl)n1)C(=O)O (stereo not drawn) [Example 68, 2-([1-[(2-Chlorophenyl)methyl]-5-(3-methoxyphenyl)-1H-pyrazol-3-yl]methoxy)-2-methylbutanoic acid]",Human microsome % 60 min,[1],95%
same,Mouse microsome % 60 min,[2],91%
"CC[C@](C)(OCc1cc(-c2cccc(OC)c2)n(Cc2ccccc2Cl)n1)C(=O)O [Example 120, (2S)-2-([1-[(2-chlorophenyl)methyl]-5-(3-methoxyphenyl)-1H-pyrazol-3-yl]methoxy)-2-methylbutanoic Acid]",Human microsome % 60 min,[1],81%
same,Rat microsome % 60 min,[3],44%
"CC[C@@](C)(OCc1cc(-c2cccc(OC)c2)n(Cc2ccccc2Cl)n1)C(=O)O [Example 121, (2R)-2-([1-[(2-chlorophenyl)methyl]-5-(3-methoxyphenyl)-1H-pyrazol-3-yl]methoxy)-2-methylbutanoic Acid]",Human microsome % 60 min,[1],82%
same,Rat microsome % 60 min,[3],61%
same,Mouse microsome % 60 min,[2],81%
"CC(C)COc1ncc(-c2cc(COC(C)(C)C(=O)O)nn2Cc2ccccc2Cl)s1 [Example 132, 2-([1-[(2-Chlorophenyl)methyl]-5-[2-(2-methylpropoxy)-1,3-thiazol-5-yl]-1H-pyrazol-3-yl]methoxy)-2-methylpropanoic acid]",Human microsome % 60 min,[1],70%
same,Rat microsome % 60 min,[3],70%
same,Mouse microsome % 60 min,[2],64%
"CC(C)Oc1ncc(-c2cc(COC(C)(C)C(=O)O)nn2Cc2ccccc2Cl)s1 [Example 133, 2-([1-[(2-Chlorophenyl)methyl]-5-[2-(propan-2-yloxy)-1,3-thiazol-5-yl]-1H-pyrazol-3-yl]methoxy)-2-methylpropanoic acid]",Human microsome % 60 min,[1],97%
same,Rat microsome % 60 min,[3],91%
same,Mouse microsome % 60 min,[2],90%
"CC(C)Cc1ncc(-c2cc(COC(C)(C)C(=O)O)nn2Cc2ccccc2Cl)o1 [Example 134, 2-([1-[(2-Chlorophenyl)methyl]-5-[2-(2-methylpropyl)-1,3-oxazol-5-yl]-1H-pyrazol-3-yl]methoxy)-2-methylpropanoic acid]",Human microsome % 60 min,[1],80%
same,Rat microsome % 60 min,[3],85%
same,Mouse microsome % 60 min,[2],72%
"COc1cccc(-c2cc(COC(C)(C)C(=O)O)nn2Cc2ccccc2OC(C)C)c1 [Example 140, 2-([5-(3-Methoxyphenyl)-1-[[2-(propan-2-yloxy)phenyl]methyl]-1H-pyrazol-3-yl]methoxy)-2-methylpropanoic acid]",Human microsome % 60 min,[1],67%
same,Rat microsome % 60 min,[3],48%
same,Mouse microsome % 60 min,[2],62%
"CC(C)(C)COc1cccc(-c2cc(COC(C)(C)C(=O)O)nn2-c2ccccc2N2CCC2)c1 [Example 155, 2-([1-[2-(Azetidin-1-yl)phenyl]-5-[3-(2,2-dimethylpropoxy)phenyl]-1H-pyrazol-3-yl]methoxy)-2-methylpropanoic acid]",Human microsome % 60 min,[1],62%
same,Rat microsome % 60 min,[3],70%
same,Mouse microsome % 60 min,[2],37%
"CCn1ncc2ccc(-c3cc(COC(C)(C)C(=O)O)nn3-c3ccccc3Cl)cc21 [Example 157, 2-([1-(2-chlorophenyl)-5-(1-ethyl-1H-indazol-6-yl)-1H-pyrazol-3-yl]methoxy)-2-methylpropanoic acid]",Human microsome % 60 min,[1],78%
same,Rat microsome % 60 min,[3],97%
"Cn1ncc2cccc(-n3nc(COC(C)(C)C(=O)O)cc3-c3cccc(OC4CCC4)c3)c21 [Example 166, 2-([5-(3-Cyclobutoxyphenyl)-1-(1-methyl-1H-indazol-7-yl)-1H-pyrazol-3-yl]methoxy)-2-methylpropanoic acid]",Human microsome % 60 min,[1],94%
same,"Rat microsome t1/2, min",[3]; in vitro t1/2,∞
same,Mouse microsome % 60 min,[2],82%
"Cn1ncc2cccc(-n3nc(COC(C)(C)C(=O)O)cc3-c3cccc(OCC4CCC4)c3)c21 [Example 168, 2-([5-[3-(cyclobutylmethoxy)phenyl]-1-(1-methyl-1H-indazol-7-yl)-1H-pyrazol-3-yl]methoxy)-2-methylpropanoic acid]",Human microsome % 60 min,[1],78%
same,Rat microsome % 60 min,[3],81%
same,Mouse microsome % 60 min,[2],81%
"CC(C)(C)COc1cccc(-c2cc(COC(C)(C)C(=O)O)nn2-c2ccccc2Cl)c1 [Example 177, 2-([1-(2-chlorophenyl)-5-[3-(2,2-dimethylpropoxy)phenyl]-1H-pyrazol-3-yl]methoxy)-2-methylpropanoic acid]",Human microsome % 60 min,[1],75%
same,Rat microsome % 60 min,[3],90%
same,Mouse microsome % 60 min,[2],87%
"CC(C)(OCc1cc(-c2cccc(OCC3CCC3)c2)n(-c2ccccc2Cl)n1)C(=O)O [Example 178, 2-([1-(2-Chlorophenyl)-5-[3-(Cyclobutylmethoxy)phenyl]-1H-pyrazol-3-yl]methoxy)-2-methylpropanoic acid]",Human microsome % 60 min,[1],66%
same,Rat microsome % 60 min,[3],72%
same,Mouse microsome % 60 min,[2],70%
"CC(C)(OCc1cc(-c2cccc(OC3CC3)c2)n(-c2ccc(F)cc2N2CCC2)n1)C(=O)O [Example 183, 2-([1-[2-(Azetidin-1-yl)-4-fluorophenyl]-5-(3-cyclopropoxyphenyl)-1H-pyrazol-3-yl]methoxy)-2-methylpropanoic acid]",Human microsome % 60 min,[1],66%
same,Rat microsome % 60 min,[3],71%
same,Mouse microsome % 60 min,[2],73%
"Cc1ccccc1-n1nc(COC(C)(C)C(=O)O)cc1-c1cccc(OC2CC2)c1 [Example 188, 2-([5-(3-Cyclopropoxyphenyl)-1-(2-methylphenyl)-1H-pyrazol-3-yl]-methoxy)-2-methylpropanoic acid]","Human microsome t1/2, min",[1]; in vitro t1/2,∞
same,Rat microsome % 60 min,[3],87%
same,Mouse microsome % 60 min,[2],92%
"CCOc1ccccc1Cn1nc(COC(C)(C)C(=O)O)cc1-c1cc(Cl)cc(OC)c1 [Example 196, 2-([5-(3-Chloro-5-methoxyphenyl)-1-[(2-ethoxyphenyl)methyl]-1H-pyrazol-3-yl]methoxy)-2-methylpropanoic acid]",Human microsome % 60 min,[1],62%
same,Rat microsome % 60 min,[3],32%
same,Mouse microsome % 60 min,[2],33%
